# Measurements: PubChem BioAssay (NCI)
#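 Five compound concentrations were applied to cells in 96-well plates for 48 hours; endpoints were derived by simple linear interpolation of the resulting dose-response curve. Here, GI50 denotes the concentration required for 50% inhibition of growth. The concentration for full growth arrest is given as TGI.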
# Key:
# Assay in all cases: growth of human tumour cells (NCI), 48 h
# [1] = test system: HCT-116 colon
# [2] = test system: M14 melanoma
# [3] = test system: MOLT-4 leukemia
# [4] = test system: NCI-H226 lung
# [5] = test system: OVCAR-8 ovarian
# [6] = test system: SF-268 CNS
# [7] = test system: SF-539 CNS
# [8] = test system: SK-MEL-28 melanoma
# [9] = test system: SN12C renal
# [10] = test system: U251 CNS
Structure (SMILES),TGI [1],TGI [2],TGI [3],TGI [4],TGI [5],TGI [6],TGI [7],TGI [8],TGI [9],TGI [10],GI50 [3],GI50 [4],GI50 [7],GI50 [8],GI50 [9],GI50 [10],GI50 [1],GI50 [2],GI50 [5],GI50 [6]
COc1ccc(OC)c([N+](=O)[O-])c1-c1nc2sc(C)c(C)n2c1/C=N/N=C(N)N,> 100 µM,> 100 µM,40.4 µM,> 100 µM,> 100 µM,> 100 µM,> 100 µM,> 100 µM,> 100 µM,> 100 µM,,,,,,,,,,
CC(C)=CC[C@H]1C[C@@]2(CC=C(C)C)C(=O)/C(=C(/O)c3ccccc3)C(=O)[C@](CC=C(C)C)(C2=O)C1(C)C,14.5 µM,25.2 µM,> 100 µM,36.2 µM,35 µM,39.4 µM,48 µM,30.3 µM,14.8 µM,20.8 µM,,,,,,,,,,
N=C(N)SCCN1CCCCC1,> 100 µM,50.3 µM,58 µM,47.7 µM,> 100 µM,> 100 µM,84.1 µM,88.8 µM,73.4 µM,44 µM,,,,,,,,,,
O=C(CSc1nc2ccc(I)cc2c(=O)n1Cc1ccccc1)NN1C(=O)CSC1c1ccccc1 (centres undefined),56.1 µM,84.4 µM,> 100 µM,> 100 µM,> 100 µM,79.1 µM,70.7 µM,95.9 µM,56.1 µM,69.5 µM,,,,,,,,,,
C[N+]1(C)C/C(=C\c2ccc(O)cc2)C(=O)/C(=C/c2ccc(O)cc2)C1,> 100 µM,> 100 µM,> 100 µM,,> 100 µM,> 100 µM,> 100 µM,> 100 µM,> 100 µM,> 100 µM,,,,,,,,,,
CC(=O)[C@]12OC(=O)C3=C1[C@H](CC[C@@H]3C)[C@@H](C)C[C@H]2C=C(C)C,13.4 µM,16.7 µM,18.6 µM,16 µM,17 µM,15.8 µM,16.5 µM,,15.8 µM,14.9 µM,,,,,,,,,,
CCCCCCCCc1ccc(CCC(N)(CO)CO)cc1,,,3.44 µM,3.42 µM,,,3.39 µM,3.2 µM,13.9 µM,3.32 µM,1.64 µM,1.77 µM,1.85 µM,1.8 µM,3.5 µM,1.8 µM,,,,
CC(=O)c1c(C)cc2cccc(OC3OC(CO)C(O)C(O)C3O)c2c1O (centres undefined) (tested in a mixture with another compound),> 100 µM,> 100 µM,> 100 µM,> 100 µM,> 100 µM,> 100 µM,> 100 µM,> 100 µM,> 100 µM,> 100 µM,,,,,,,,,,
C=C(C[C@@H](O)[C@H](C)NC(=O)OCc1ccccc1)C(=O)OC(C)(C)C,> 100 µM,> 100 µM,> 100 µM,> 100 µM,> 100 µM,> 100 µM,> 100 µM,> 100 µM,> 100 µM,> 100 µM,,,,,,,,,,
COc1cc(O)c2c(=O)c(OC)c(-c3ccc(OC)c(OC)c3)oc2c1.[Zn+2],> 100 µM,> 100 µM,> 100 µM,> 100 µM,> 100 µM,> 100 µM,> 100 µM,> 100 µM,> 100 µM,,> 100 µM,,,> 100 µM,,,22.6 µM,45.4 µM,13.2 µM,12.9 µM
CC(=O)Oc1cc(/C=C/c2ccc(O)cc2)cc(OC(C)=O)c1,> 100 µM,> 100 µM,63.2 µM,86.9 µM,> 100 µM,> 100 µM,41.5 µM,> 100 µM,68.5 µM,> 100 µM,,,,,,,,,,
C[N+]1(c2ccccc2)C=C(c2ccccc2)SC1=S (centres undefined),> 100 µM,> 100 µM,,> 100 µM,> 100 µM,> 100 µM,> 100 µM,> 100 µM,> 100 µM,> 100 µM,,,,,,,,,,
CC[C@H]1C=CCC[C@@]2(C[C@@H]3CC[C@H]4[C@@H](C(=O)OCCCCCCCCCCCCCCCC(=O)N(CCCNC(C)=O)C[C@H](CCNC(C)=O)OC(C)=O)[C@@]5(CCC[C@@H](C)O5)NC(=[N+]34)N2)O1,2.92 µM,3.24 µM,2.99 µM,2.94 µM,2.9 µM,3.38 µM,2.87 µM,2.63 µM,3.54 µM,2.11 µM,,,,,,,,,,
Nc1ccc(S(=O)(=O)NCCS(=O)(=O)O)cc1,> 100 µM,> 100 µM,> 100 µM,> 100 µM,> 100 µM,> 100 µM,,> 100 µM,> 100 µM,> 100 µM,,,,,,,,,,
NC(=S)N/N=C1\CC(c2ccccc2)Nc2ccccc21 (centres undefined),,> 100 µM,73.2 µM,> 100 µM,> 100 µM,> 100 µM,> 100 µM,> 100 µM,> 100 µM,> 100 µM,,,,,,,,,,
O=C(c1ccc(Cl)c(Cl)c1)N(C(=O)N1CCN(c2ccccc2)CC1)S(=O)(=O)c1ccccc1,86.8 µM,> 100 µM,41.8 µM,87.9 µM,83.5 µM,> 100 µM,> 100 µM,> 100 µM,> 100 µM,62.9 µM,,,,,,,,,,
O=C(/C=C/c1ccc(O)cc1)c1cc(-c2cc(CCC(=O)c3ccc(O)cc3O)ccc2O)c(O)cc1O,> 50 µM,> 50 µM,> 50 µM,,> 50 µM,> 50 µM,24.8 µM,> 50 µM,> 50 µM,> 50 µM,,,,,,,,,,
Cc1ncc(COP(=O)(O)O)c(C)c1O,> 100 µM,> 100 µM,> 100 µM,> 100 µM,> 100 µM,> 100 µM,,> 100 µM,> 100 µM,> 100 µM,,,,,,,,,,
CC(=O)C(N=NC1CCC(S(=O)(=O)NB2N=CS2)CC1)C(=O)Nc1ccccc1C (centres undefined),26.3 µM,35.5 µM,> 100 µM,31.4 µM,34.1 µM,30.8 µM,32.4 µM,30.8 µM,34.7 µM,26.6 µM,,,,,,,,,,
CCOc1ccc(N=Nc2ccc(-c3ccc(N=Nc4c(O)ccc5cc(S(=O)(=O)O)cc(S(=O)(=O)O)c45)cc3)cc2)cc1,> 100 µM,> 100 µM,> 100 µM,> 100 µM,> 100 µM,> 100 µM,> 100 µM,> 100 µM,,> 100 µM,,,,,,,,,,
O=C1O/C(=C\C=C\CO)C=C1/C=C/CO,29.9 µM,43.1 µM,> 100 µM,95.8 µM,38.6 µM,58.2 µM,55 µM,49.7 µM,80.4 µM,> 100 µM,,,,,,,,,,
